Each structure is given as a SMILES string. Where a SMILES comes first, the peptide text is derived from it.

The values below come from BindingDB's records for doi:10.1124/jpet.104.077321 (I.G.B.M.C., 2005).

The target of the test is Delta-type opioid receptor (Homo sapiens, UniProt P41143).
Sequence of Delta-type opioid receptor (P41143 whole entry): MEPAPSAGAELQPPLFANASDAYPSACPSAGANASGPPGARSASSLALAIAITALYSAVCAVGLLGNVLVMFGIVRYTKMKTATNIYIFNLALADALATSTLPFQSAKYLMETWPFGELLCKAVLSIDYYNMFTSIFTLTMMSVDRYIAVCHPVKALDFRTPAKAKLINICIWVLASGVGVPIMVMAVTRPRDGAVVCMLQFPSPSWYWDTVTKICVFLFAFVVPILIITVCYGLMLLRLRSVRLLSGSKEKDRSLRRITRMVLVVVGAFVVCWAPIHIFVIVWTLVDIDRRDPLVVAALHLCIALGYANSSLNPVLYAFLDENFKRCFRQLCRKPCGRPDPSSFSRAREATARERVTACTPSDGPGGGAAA
What is called Ki is the dissociation constant of the complex between target and ligand, obtained from inhibition or displacement. A lower Ki goes with tighter binding. `C=CCN(CC=C)[C@@H](Cc1ccc(O)cc1)C(=O)NC(C)(C)C(=O)NC(C)(C)C(=O)N[C@@H](Cc1ccccc1)C(=O)N[C@@H](CC(C)C)C(=O)O` [NSC_107691] (HELM PEPTIDE1{[C=CCN(CC=C)[C@@H](Cc1ccc(O)cc1)C(=O)[*:2]].[Aib].[Aib].F.L}$$$$V2.0) came in with an inhibition constant (Ki) of 434 nM. This lies in the sub-micromolar range.

In turn, `COc1c(O)cc2c3c1O[C@@]1(C)c4oc5ccccc5c4C[C@@]4(O)C(C2)N(CC2CC2)CCC314` (stereo partly specified) [NSC_0] had a Ki of 0.22 nM.

The compound `C=CCN1CCC23c4c5ccc(O)c4OC2c2c(c4ccccc4n2C)C[C@@]3(OC)C1C5` (stereo partly specified) [HS531] showed a Ki of 0.42 nM. This Ki is about 1.9-fold higher than that of the compound before.

In turn, `Cc1cc(O)cc(C)c1C[C@@H](C(=O)N1Cc2ccccc2C[C@H]1C(N)=O)N(C)C` came in with a Ki of 2.5 nM.

Turning to `CCO[C@@]12Cc3c([nH]c4ccccc34)[C@]3(C)Oc4c(O)ccc5c4C31CCN(CC1CC1)C2C5` (stereo partly specified) [HS378], the affinity, expressed as Ki, was 0.4 nM.

Compound `C=CCN1CCC23c4c5ccc(O)c4OC2c2[nH]c4ccccc4c2C[C@@]3(OCC)C1C5` (stereo partly specified) [HS414] had a Ki of 2.1 nM.

Take `CCO[C@@]12Cc3c([nH]c4ccccc34)C3Oc4c(O)ccc5c4C31CCN(CC1CC1)C2C5` (stereo partly specified) [HS464]: the affinity corresponds to a Ki of 0.11 nM. Compared with the last compound, the Ki is about 19-fold lower.

The compound `CCO[C@@]12Cc3c(oc4ccccc34)C3Oc4c(O)ccc5c4C31CCN(CC1CC1)C2C5` (stereo partly specified) [HS510A] had a Ki of 0.12 nM.

For the compound `Cc1cc(O)cc(C)c1C[C@H](N)C(=O)N1Cc2ccccc2C[C@H]1C(=O)O` [(S)-2-((S)-2-amino-3-(4-hydroxy-2,6-dimethylphenyl)propanoyl)-1,2,3,4-tetrahydroisoquinoline-3-carboxylic acid] (HELM PEPTIDE1{[Cc1cc(O)cc(C)c1C[C@H](N)C(=O)[*:2]].[Tic]}$$$$V2.0), the Ki stood at 13.1 nM.

`N[C@@H](Cc1ccc(O)cc1)C(=O)N1Cc2ccccc2C[C@H]1C(=O)N[C@@H](Cc1ccccc1)C(=O)N[C@@H](Cc1ccccc1)C(=O)O` [TIPP] (HELM PEPTIDE1{Y.[Tic].F.F}$$$$V2.0) displayed a Ki of 2.9 nM. Compared with the last compound, the Ki is about 4.5-fold lower.

Turning to `Cc1cc(O)cc(C)c1C[C@H](N)C(=O)N1Cc2ccccc2C[C@H]1C(N)=O` [H-Dmt-Tic-NH2] (HELM PEPTIDE1{[Cc1cc(O)cc(C)c1C[C@H](N)C(=O)[*:2]].[Tic].[am]}$$$$V2.0), the affinity, expressed as Ki, was 9.41 nM.
